Test [1] deals with C2C12 cells. In words: Western blot of differentiation markers and myofibrillar proteins. The test is classed as cell-based. As for the experimental part:
(§1) To induce C2C12 myotube differentiation, myoblasts were seeded in 6-well plates at 5 × 10^5 cells per well. Once reaching 90% confluency, they were cultured in DMEM supplemented with 2% horse serum (Thermo Fisher Scientific) and 1% penicillin-streptomycin. […] Differentiation was observed using an optical microscope (LEICA, 100×). Myotube morphology (length and diameter) was quantified in ImageJ (NIH) using the same images: myotube length was measured by tracing the long axis of each myotube (end-to-end), and myotube diameter was measured as the short-axis width at three positions along each myotube; the mean of the three width values was recorded as the diameter. For each experimental group, three randomly captured images (fields) were analyzed, and at least 15–20 myotubes per image were quantified under identical imaging settings.
Treated C2C12 cells (5 × 10^5 cells/well) were harvested in lysis buffer (Sigma-Aldrich, 2910) and centrifuged at 12,000 g for 10 min; proteins in the supernatant were collected. Protein concentrations were measured using the BCA Protein Assay Kit (Thermo Fisher Scientific). Each 20 μg sample was separated using 10% SDS–PAGE and transferred onto a polyvinylidene fluoride membrane (Millipore, Burlington, MA, USA). Non-specific binding was blocked with 5% non-fat dry milk for 1 h. The membranes were incubated overnight with primary antibodies: Anti-Myf5 (Abcam, ab125078), Anti-Myf6 (Abcam, ab182842), Anti-MyoD (Santa Cruz, sc-377460), Anti-MyoG (Santa Cruz, sc-52903), Anti-α-actinin (Santa Cruz, sc-17829), Anti-MYH3 (Santa Cruz, sc-53091), Anti-p-mTOR (Ser2448) (CST, #5536), Anti-p-Akt (Ser473) (CST, #9271), Anti-p-p70 S6 Kinase (Thr389) (CST, #9205), Anti-myostatin (Abcam, ab124721), Anti-atrogin-1/MAFbx (Santa Cruz, sc-166806), and Anti-MuRF1 (Santa Cruz, sc-398608). Membranes were then incubated for 1 h with HRP-conjugated secondary antibodies. Blot images were captured with the ECL system (Amersham, UK) and quantified using ImageJ.

Test [2] has as its system patients with muscle atrophy (ICD-10-CM code: M62.5). In words: Clinical trial: muscle mass by DEXA. It is filed as in vivo, human. As for the experimental part:
The study was conducted at Biosite Research Private Limited (Shanthipura, India) under the New Drugs and Clinical Trials Rules (2019) issued by CDSCO (Ministry of Health and Family Welfare, Government of India), and in compliance with GCP, applicable local regulatory requirements, the Declaration of Helsinki ([…]), ICMR guidelines (2017), and ICH-GCP E6 (R2). Ethical approval was obtained from the Excel Hospital Institutional Ethics Committee (ECR/1670/Inst/TG/2022) and ethics committees of other participating centers, and the trial was prospectively registered (CTRI/2024/01/061919). All participants provided written informed consent prior to any study procedures. […] Efficacy endpoints were evaluated as changes from baseline to Week 12; efficacy analyses were conducted in the per-protocol population, and safety analyses included all randomized participants who received at least one dose of study product (Supplementary Figure S2). […] Continuous variables were summarized as N, mean (SD), median, minimum, and maximum, and categorical variables as n (%), with percentages calculated as n/N × 100. Changes from baseline to Week 12 in DEXA-assessed muscle mass, 6-m walk test, and handgrip strength were analyzed using ANCOVA, adjusting for the corresponding baseline value. […]

The test system of test [3] is C2C12 cells. In words: Myotube morphology during differentiation (microscopy, ImageJ). It is filed as cell-based. As for the experimental part: as §1
In test [4] the test system is SAMP8 mice. In words: Immunofluorescence in skeletal muscle tissues. The test is classed as in vivo, mouse. The note with it: oral gavage 45 weeks, 20 mg in 200 µL PBS. As for the experimental part: Eight week old male senescence-accelerated mouse-prone 8 (SAMP8)/Ta Slc and senescence-accelerated mouse-resistant 1 (SAMR1)/Ta Slc mice (weighing 30 ± 2 g) were purchased from Central Lab Animal Inc. (Seoul, Korea) and housed at 24 °C in cages under a 12/12 h light/dark cycle with ad libitum access to food and water. […] Mice in all groups were dosed once daily by oral gavage for 45 weeks. […] This study was approved by the Institutional Animal Care and Use Committee (approval number CG-R22-001).
Muscle tissues fixed in formalin were sectioned into 5-μm paraffin section. They were treated with heat-mediated antigen retrieval in TRS buffer TRS buffer (pH 6.2) and peroxide-blocked using reagent (Epredia, TA-125-PBQ). Primary antibodies—anti-myostatin (Abcam, ab124721), anti-atrogin-1/MAFbx (Santa Cruz, sc-166806), and anti-fast MyHC (Abcam, ab91506)—were diluted 1:250 or 1:500 in anti-body diluent (GBI Labs, E09-300) and incubated overnight at 4 °C. […] Nuclei were stained with 4′,6-diamidino-2-phenylindole (DAPI; blue) for 20 min, mounted using Aqua Mounting Media (Biomeda), and imaged at 200× with a confocal fluorescence microscope (LEICA, Wetzlar, Germany). Fluorescence intensities were quantified using ImageJ software, and results were statistically analyzed.

From paper PMC12935919 (Frontiers in Pharmacology, 2026) come the findings set out here.

No end group written: not given here.

For the substance EAEYEHL-OH [Myoki], in test [1] (Day 3, Western blot, vs DM), the MYH3 protein expression result is listed as “significant increase”, the MyoD protein expression entry is on record as “significant increase”, the MyoG protein expression entry is “significant increase” and the alpha-actinin protein expression result is “significant increase”. Moreover, in test [1] (Day 6, 100 μM, Western blot), the “increase in MYH3 expression” value stood at 307% and the “increase in alpha-actinin expression” value is reported as 818%. The “Lean muscle mass, change from baseline to Week 12 (LS mean)” value in test [2] (Myoki + arginine + maltodextrin, 200 mg peptide/day oral, N = 38, 95% CI (736.90 to 1124.7), placebo 225) was determined as 930.8 g. Moreover, in test [2] (Week 12, 200 mg/day, ANCOVA, p <0.01), the “Lean muscle mass, difference between placebo and treatment (95% CI)” value came to 705.8 g. Also, the “increase in myotube length compared to the control” value in test [3] (Day 6, 100 μM, differentiation medium (2% horse serum), mean ± SD) is 200% ± 33.88%. Moreover, the myotube length entry in test [3] (Days 0-6, Myoki 1, 10 and 100 μM) is “increased concentration- and time-dependently”. In test [4] (n = 5), the fast-MyHC fluorescence intensity result is “restored toward SAMR1 levels”. For the same substance, in test [4] (n = 5, vs SAMP8 group), the “atrogin-1/MAFbx fluorescence intensity, gastrocnemius” value was “significantly decreased”.
